The record followed here is US20090062401A1, “DECALINE-DERIVED COMPOUNDS AS […] ACTIVE AGENTS” (UNIVERSITAT DORTMUND, priority 2004, published 2009).

Assay type in all cases: biochemical
The target in one assay is T1, PTP1B (Homo sapiens, UniProt P18031).
T1 sequence (P18031 1-435): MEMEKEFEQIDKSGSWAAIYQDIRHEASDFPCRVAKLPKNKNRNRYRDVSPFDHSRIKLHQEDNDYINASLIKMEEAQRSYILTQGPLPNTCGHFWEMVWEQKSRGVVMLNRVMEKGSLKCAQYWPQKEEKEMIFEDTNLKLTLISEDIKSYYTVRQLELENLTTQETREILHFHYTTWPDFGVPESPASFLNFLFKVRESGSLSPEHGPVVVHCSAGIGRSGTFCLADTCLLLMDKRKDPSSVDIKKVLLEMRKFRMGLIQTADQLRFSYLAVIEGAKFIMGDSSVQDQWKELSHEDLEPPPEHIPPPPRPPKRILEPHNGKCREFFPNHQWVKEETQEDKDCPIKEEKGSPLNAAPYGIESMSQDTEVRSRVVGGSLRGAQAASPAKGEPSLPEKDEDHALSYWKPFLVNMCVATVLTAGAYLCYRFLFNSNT
As to the kind of experiment: PTP1B phosphatase inhibition, general phosphatase assay using para-nitrophenylphosphate. The following applies: read-out: IC50 Target PTP1B. An excerpt:
(§1) Assays protocols for the other enzymes mentioned herein (MtPTPA, PP1, VHR, PTP1B) are disclosed in Schweizer R A S, Atanasov, G A, Frey B M, and Odermatt A, Mol. Cell. Endocrinol. 2003, 212, 41-49 and Barratte, B., Meijer L., Galaktionov K. & Beach D, Anticancer Res. 1992, 12, 873-880. For determination of the phosphatase activity, a general phosphatase assay using para-nitrophenylphosphate was applied.

The target in a further assay is VHR (Homo sapiens, UniProt P51452). As to the kind of experiment: VHR phosphatase inhibition, general phosphatase assay using para-nitrophenylphosphate. The following applies: read-out: IC50 Target VHR.
Text: as §1

Another assay deals with T2, Cdc25A (Homo sapiens, UniProt P30304).
T2 sequence (P30304 1-524): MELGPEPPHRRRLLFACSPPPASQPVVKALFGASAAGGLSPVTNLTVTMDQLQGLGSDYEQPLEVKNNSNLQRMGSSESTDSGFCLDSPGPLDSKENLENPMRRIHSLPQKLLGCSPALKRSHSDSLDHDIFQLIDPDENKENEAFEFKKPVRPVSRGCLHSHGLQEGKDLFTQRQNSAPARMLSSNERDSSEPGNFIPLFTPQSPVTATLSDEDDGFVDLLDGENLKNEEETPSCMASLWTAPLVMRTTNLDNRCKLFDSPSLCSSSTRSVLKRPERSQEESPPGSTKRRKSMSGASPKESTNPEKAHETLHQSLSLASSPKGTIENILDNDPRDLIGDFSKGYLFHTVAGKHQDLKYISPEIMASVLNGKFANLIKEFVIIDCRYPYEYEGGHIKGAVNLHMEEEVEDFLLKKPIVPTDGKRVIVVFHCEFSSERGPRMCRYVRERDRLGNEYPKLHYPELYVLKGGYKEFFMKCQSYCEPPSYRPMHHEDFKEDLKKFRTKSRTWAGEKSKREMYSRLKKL
The assay is described as follows: Cdc25A phosphatase inhibition. The following applies: read-out: IC50 Target Cdc25A. An excerpt:
Assay protocols for Cdc25A, 11βHSD1, 11βHSD2, and AChE are described in detain in the publication of Koch M A, Wittenberg L O, Basu S, Jeyaraj D A, Gourzoulidou E, Reinecke K, Odermatt A, Waldmann H (Proc. Natl. Acad. Sci. U.S.A. 2004 Nov. 30; 101(48):16721-6) and in Koch M A et al., Proc. Natl. Acad. Sci. U.S.A. 2005 Nov. 29; 102 (48):17272-7.

In general, IC50 refers to the concentration that inhibits the measured activity by half.

Sequence of VHR (P51452 whole entry, species assumed): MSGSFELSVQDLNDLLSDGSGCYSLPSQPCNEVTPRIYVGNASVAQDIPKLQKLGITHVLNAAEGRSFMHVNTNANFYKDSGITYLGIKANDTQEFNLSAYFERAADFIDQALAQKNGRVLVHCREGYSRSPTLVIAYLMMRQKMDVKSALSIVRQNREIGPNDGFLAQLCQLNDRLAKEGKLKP

Regarding `COc1ccc(/C=C2\C[C@@]3(C)C(=C(C)C2=O)CCC[C@@H]3O)c(C)c1` [Compound 16, (3E,4aS,5S)-3-(4-Methoxy-2-methylbenzyliden)-4,4a,5,6,7,8-hexahydro-5-hydroxy-1,4a-dimethylnaphthalen-2(3H)-one], the IC50 at PTP1B and on VHR was 10 to 50 µM throughout.
`CC1=C2CCC[C@H](O)[C@@]2(C)C/C(=C\c2cccs2)C1=O` [Compound 30, (3E,4aS,5S)-4,4a,5,6,7,8-Hexahydro-5-hydroxy-1,4a-dimethyl-3-[(thiophen-2-yl)methylen]naphthalen-2(3H)-one]: the IC50 at PTP1B and at VHR was 10 to 50 µM each time.
As to `CC1=C2CCC[C@H](O)[C@@]2(C)C/C(=C\c2sccc2C)C1=O` [Compound 33], the IC50 at PTP1B and on VHR was 10 to 50 µM in each case.
For the compound `CC1=C2CCC[C@H](O)[C@@]2(C)C/C(=C\c2ccco2)C1=O` [Compound 34, (3E,4aS,5S)-3-[(Furan-2-yl)methylen]-4,4a,5,6,7,8-hexahydro-5-hydroxy-1,4a-dimethylnaphthalen-2(3H)-one], the IC50 at PTP1B was in the range of 10 to 50 µM.
On to `COC#Cc1ccc(/C=C2\C[C@@]3(C)C(=C(C)C2=O)CCC[C@@H]3O)cc1` [Compound 37, (3E,4aS,5S)-3-[4-(2-Methoxy-ethinyl)benzyliden]-4,4a,5,6,7,8-hexahydro-5-hydroxy-1,4a-dimethylnaphthalen-2(3H)-one], for which, at PTP1B, the IC50 is 10 to 50 µM.
The same measure, in the same setting: to `CC1=C2CCC[C@H](O)[C@@]2(C)C/C(=C\c2ccc(C#Cc3ccc(C)cc3)cc2)C1=O` [Compound 41, (3E,4aS,5S)-3-[4-(2-p-Tolylethinyl)benzyliden]-4,4a,5,6,7,8-hexahydro-5-hydroxy-1,4a-dimethyl-naphthalen-2(3H)-one] belongs 10 to 50 µM.
In the case of `C#CCCCCCC#Cc1ccc(/C=C2\C[C@@]3(C)C(=C(C)C2=O)CCC[C@@H]3O)cc1` [Compound 42, (3E,4aS,5S)-3-[4-(Nona-1,8-diinyl)benzyliden]-4,4a,5,6,7,8-hexahydro-5-hydroxy-1,4a-dimethyl-naphthalen-2(3H)-one], the IC50 on Cdc25A was under 10 µM.
With `CCCCCCCCCCCCCCC#Cc1ccc(/C=C2\C[C@@]3(C)C(=C(C)C2=O)CCC[C@@H]3O)cc1` [Compound 43, (3E,4aS,5S)-3-[4-(Hexadec-1-inyl)benzyliden]-4,4a,5,6,7,8-hexahydro-5-hydroxy-1,4a-dimethyl-naphthalen-2(3H)-one], the IC50 at PTP1B and on VHR was 10 to 50 µM throughout.
With `CC1=C2CCC[C@H](O)[C@@]2(C)C/C(=C\c2ccc(C#CC3(O)CCCCC3)cc2)C1=O` [Compound 48, (3E,4aS,5S)-3-{4-[2-(1-Hydroxycyclohexyl)ethinyl]benzyliden}-4,4a,5,6,7,8-hexahydro-5-hydroxy-1,4a-dimethylnaphthalen-2(3H)-one], at Cdc25A, the IC50 lay within 10 to 50 µM.
For the compound `CC1=C2CCC[C@H](O)[C@@]2(C)C/C(=C\C[C@]2(O)C[C@@H](O)[C@@H](O)[C@H](O)C2)C1=O` [Compound 58, (3E,4aS,5S)-4,4a,5,6,7,8-Hexahydro-5-hydroxy-3-{2-[(1S,3R,4S,5R)-1,3,4,5-tetrahydroxycyclohexyl]-ethyliden}-1,4a-dimethylnaphthalen2(3H)-one], the IC50 on PTP1B and on VHR was 10 to 50 µM in each case.
For `CC1=C2CCC[C@H](O)[C@@]2(C)C/C(=C\CCc2ccco2)C1=O` [Compound 59, (3E,4aS,5S)-3-[3-(Furan-2-yl)propyliden]-4,4a,5,6,7,8-hexahydro-5-hydroxy-1,4a-dimethylnaphthalen-2(3H)-one], the 50% inhibitory concentration (IC50) on PTP1B fell in the range of 10 to 50 µM.
With `CC1=C2CCC[C@H](O)[C@@]2(C)C/C(=C\c2c(C)c(C)c(C)c(C)c2C)C1=O` [Compound 61, (3E,4aS,5S)-3-(2,3,4,5,6-Pentamethylbenzyliden)-4,4a,5,6,7,8-hexahydro-5-hydroxy-1,4a-dimethylnaphthalen-2(3H)-one], the IC50 on PTP1B was in the range of 10 to 50 µM.
Same read-out and setting: to `CC1=C2CCC[C@H](O)[C@@]2(C)C/C(=C\c2ccc(OCc3ccccc3)cc2)C1=O` [Compound 66, (3E,4aS,5S)-3-[4-(Benzyloxy)benzyliden]-4,4a,5,6,7,8-hexahydro-5-hydroxy-1,4a-dimethylnaphthalen-2(3H)-one] belongs 10 to 50 µM.
As to `C=C(C)C#Cc1ccc(/C=C2\C[C@@]3(C)C(=C(C)C2=O)CCC[C@@H]3O)cc1` [Compound 71, (3E,4aS,5S)-3-[4-(3-Methylbut-3-en-1-inyl)benzyliden]-4,4a,5,6,7,8-hexahydro-5-hydroxy-1,4a-dimethylnaphthalen-2(3H)-on], the IC50 at Cdc25A was in the range of 10 to 50 µM.
For `CC1=C2CCC[C@H](O)[C@@]2(C)C/C(=C\c2ccc(C#CCCCc3ccccc3)cc2)C1=O` [Compound 72, (3E,4aS,5S)-3-[4-(5-Phenylpent-1-inyl)benzyliden]-4,4a,5,6,7,8-hexahydro-5-hydroxy-1,4a-dimethylnaphthalen-2(3H)-one], the IC50 at Cdc25A was in the range of 10 to 50 µM.
The same measure, in the same setting: to `CC1C(=O)/C(=C/c2cccn2C)C[C@@]2(C)C1CCC[C@@H]2O` (stereo partly drawn) [Compound 86, (E,4aS,5S)-Octahydro-5-hydroxy-1,4a-dimethyl-3-[(1-methyl-1H-pyrrol-2-yl)methylen]naphthalen-2(1H)-one] belongs 10 to 50 µM.
Take `CCCCCCCCCC#Cc1ccc(/C=C2\C[C@@]3(C)C(=C(C)C2=O)CCC[C@@H]3O)cc1` [Compound 90, (3E,4aS,5S)-3-[4-(Undec-1-inyl)benzyliden]-4,4a,5,6,7,8-hexahydro-5-hydroxy-1,4a-dimethylnaphthalen-2(3H)-one]: the IC50 on PTP1B lay within 10 to 50 µM.
Regarding `CCCCCCC#Cc1ccc(/C=C2\C[C@@]3(C)C(=C(C)C2=O)CCC[C@@H]3O)cc1` [Compound 91, (3E,4aS,5S)-3-[4-(Oct-1-inyl)benzyliden]-4,4a,5,6,7,8-hexahydro-5-hydroxy-1,4a-dimethylnaphthalen-2(3H)-one], on Cdc25A, the IC50 is under 10 µM.
In the case of `C=CC[C@@]12C(=CC(=O)/C(=C/CC)[C@@H]1C)CCC[C@@H]2O` [Compound 282, (3E,4R,4aS,5S)-4a-Allyl-4,4a,5,6,7,8-hexahydro-5-hydroxy-4-methyl-3-propylidennaphthalen-2(3H)-one], the IC50 on PTP1B fell in the range of 10 to 50 µM.
For the compound `CCCCCCC#Cc1ccccc1/C=C1\CCC2C(C)C(O)CC[C@]2(C)C1NC1CCCCC1` (stereo partly drawn) [Compound 323, (E,4aS)-6-[2-(Oct-1-inyl)benzyliden]-5-(cyclohexylamino)-decahydro-1,4a-dimethylnaphthalen-2-ol], the IC50 on Cdc25A is 10 to 50 µM.
On the same count and under the same terms, to `C=CC[C@@]12C(=CC(=O)/C(=C/c3ccccc3C#CCCCCCCCCCCCCCC)[C@@H]1C)CCC[C@@H]2O` [Compound 326, (3E,4R,4aS,5S)-3-[2-(Hexadec-1-inyl)benzyliden]-4a-allyl-4,4a,5,6,7,8-hexahydro-5-hydroxy-4-methylnaphthalen-2(3H)on] belongs 10 to 50 µM; to `CCCCCCCCCCCCCCC#Cc1ccccc1/C=C1\C[C@@]2(C)C(=CC1=O)CCC[C@@H]2O` [Compound 332, (3E,4aS,5S)-3-[2-(Hexadec-1-inyl)benzyliden]-4,4a,5,6,7,8-hexahydro-5-hydroxy-4a-methylnaphthalen-2(3H)-one], 10 to 50 µM.
Consider `COCC#Cc1ccccc1/C=C1\C[C@@]2(C)C(=CC1=O)CCC[C@@H]2O` [Compound 334, (3E,4aS,5S)-3-[2-(3-Methoxyprop-1-inyl)benzyliden]-4,4a,5,6,7,8-hexahydro-5-hydroxy-4a-methylnaphthalen-2(3H)-one], for which the IC50 at Cdc25A lay in the range of 10 to 50 µM.
Turning to `CC1=C2CCC[C@H](O)[C@@]2(C)CC(=Cc2ccc(C#Cc3ccncc3)cc2)C1=O` [Compound 395, (4aS,5S)-5-Hydroxy-1,4a-dimethyl-3-(4-pyridin-4-ylethynyl-benzylidene)-4,4a,5,6,7,8-hexahydro-3H-naphthalen-2-one], the concentration for half-maximal inhibition (IC50) on PTP1B and at VHR was 10 to 50 µM throughout.
Turning to `CC1=C2CC(C(C)C)CC(O)C2CCC1=O` (stereo not shown) [Compound 417, 5-Hydroxy-7-isopropyl-1-methyl-4,4a,5,6,7,8,-hexahydro-3H-naphthalen-2-one], the IC50 at PTP1B was 10 to 50 µM.
